In patent publication US9060970B2, “Bridge-helix cap: target and method for inhibition of bacterial RNA polymerase” (priority 2011, dated 2015):
“Also recorded” adds a separate entry of the source. Starred links: 1 amine or outer side, 2 acyl side, 3 side chain; linkers in the order of their positions; H or OH if unused. Positions of bridges follow the written chain, without caps; N, C: chain ends. Non-standard residues stand in square brackets, D forms with d. Residues, ends and D or L forms follow the SMILES beside them. *: point of attachment. X2 = C[C@H](Oc1ccc([C@H](N[*:1])C(=O)[*:2])cc1)[C@@]1(/C=C/C(=O)[*:3])CO1; X1 = CC(C)[C@H](O)[C@H](C)C(=O)*; aIle = CC[C@@H](C)[C@H](N)C(=O)O; dNMeF = CN[C@H](Cc1ccccc1)C(=O)O; aThr = C[C@H](O)[C@H](N)C(=O)O

Tests used:
[1] = tested on: RNA synthesis in E. coli D21f2tolC; experiment: RNA synthesis in vivo ([14C]-uracil incorporation, macromolecular synthesis assay); type: cell-based, Escherichia coli; conditions: Sal at two times MIC; 5, 10, 15 min after addition; effect seen at earliest time point (5 min)
Method: (§1) Sal Inhibits RNA Synthesis in vivo. To determine whether Sal inhibits RNAP in vivo, effects of Sal on RNA synthesis in vivo were assayed, and, as a control, effects of Sal on DNA synthesis in vivo were assayed. Sal was added to cultures of E. coli D21f2tolC growing in media containing either a radioactively labeled RNA-synthesis precursor ([^14C]-uracil) or a radioactively labeled DNA synthesis precursor ([^14C]-thymidine); aliquots were removed and mixed with trichloroacetic acid (TCA) 0, 5, 10, and 15 min thereafter to lyse cells and precipitate nucleic acids; TCA-precipitated nucleic acids were collected by vacuum filtration; and radioactivity in TCA-precipitated nucleic acids was quantified (FIG. 2A). […] The effect was specific; addition of Sal to bacterial cultures had no effect on DNA synthesis (FIG. 2B, right panel). It is concluded that Sal inhibits RNA synthesis in vivo, and it is inferred that Sal inhibits RNAP in vivo.
(§2) Measurement of Nucleic Acid Synthesis in vivo. Macromolecular synthesis assays were performed essentially as in reference 5. […] Radioactivity was quantified using a Typhoon Variable Mode Imager and ImageQuant v5 (Molecular Dynamics, Inc.).

human RNAPs = conditions: human RNAP I, RNAP II, RNAP III; reference 4; cited from earlier work
[2] = tested on: DNA synthesis in E. coli D21f2tolC; experiment: DNA synthesis in vivo ([14C]-thymidine incorporation, macromolecular synthesis assay); type: cell-based, Escherichia coli; conditions: Sal at two times MIC; 5, 10, 15 min after addition
Method: as §1, §2

In the case of `CC[C@@H](C)[C@@H]1NC(=O)[C@H](NC(=O)[C@@H](C)[C@@H](O)C(C)C)[C@H](C)OC(=O)[C@H]2COC(=O)CNC(=O)/C=C/[C@@]3(CO3)[C@H](C)Oc3ccc(cc3)[C@H](NC1=O)C(=O)N(C)[C@H](Cc1ccccc1)C(=O)N[C@@H]([C@H](C)O)C(=O)N2` [Sal, salinamide A] (X1-[dT][aIle][X2][dNMeF][aThr][dS]; ester 1-C; linker 3-6 via G), the “effect on RNA synthesis in vivo” value [1] is listed as “decreased immediately; also recorded: essentially stopped”, the “inhibition of human RNAPs” value (human RNAPs) is listed as “does not inhibit” and the “effect on DNA synthesis in vivo” value [2] is listed as “no effect”.
